Values quoted from earlier work, collected in publication PMC2864005 (Archives of biochemistry and biophysics, 2010).

Test system: 3A4
Conditions: after an initial burst

## CCC(C)n1ncn(-c2ccc(N3CCN(c4ccc(OCC5COC(Cn6cncn6)(c6ccc(Cl)cc6Cl)O5)cc4)CC3)cc2)c1=O (stereo not shown) [itraconazole]
  Rate of metabolism: 0.0016 s⁻¹
